In ChEMBL document CHEMBL1127065, “Nucleoside conjugates. 13. Synthesis and antitumor activity of 1-beta-D-arabinofuranosylcytosine conjugates of thioether lipids with improved water solubility” (J Med Chem, 1993):
Several values for one entry are separate records, joined by “and”; a condition that tells them apart may be missing. Identical values can stand only once.

What was measured:
[1] = test system: Mus musculus; assay: Percent increase in life span at 150 mg/kg (154 umol) per day; assay type: functional
[2] = test system: Mus musculus; assay: Percent increase in life span at 400 mg/kg (411 umol) per day; assay type: functional
[3] = test system: Mus musculus; assay: Median T/C calculated based on survivors at 150 mg/kg (154 umol) per day against Ip-implanted L1210 lymphoid leukemia mice; assay type: functional
[4] = test system: Mus musculus; assay: Change in weight in mice bearing ip-implanted L1210 lymphoid leukemia on day 8 at 300 mg/kg or 309 umol/kg per day; assay type: functional
[5] = test system: Mus musculus; assay: Number of survivors in mice bearing ip-implanted L1210 lymphoid leukemia after 45 day; assay type: functional
[6] = test system: Mus musculus; assay: Median T/C calculated based on survivors at 400 mg/kg (411 umol) per day against Ip-implanted L1210 lymphoid leukemia mice; assay type: functional
[7] = Water solubility was determined by UV absorption at 273 nm; assay type: ADME
[8] = test system: Mus musculus; assay: Percent increase in life span at 300 mg/kg (309 umol) per day; assay type: functional
[9] = test system: Mus musculus; assay: Median T/C calculated based on survivors at 300 mg/kg (309 umol) per day against Ip-implanted L1210 lymphoid leukemia mice; assay type: functional
[10] = test system: Mus musculus; assay: Percent increase in life span at 400 mg/kg (437 umol) per day; assay type: functional
[11] = test system: Mus musculus; assay: Median T/C calculated based on survivors at 400 mg/kg (437 umol) per day against Ip-implanted L1210 lymphoid leukemia mice; assay type: functional
[12] = test system: Mus musculus; assay: Percent increase in life span at 300 mg/kg (318 umol) per day; assay type: functional
[13] = test system: Mus musculus; assay: Median T/C calculated based on survivors at 300 mg/kg (318 umol) per day against Ip-implanted L1210 lymphoid leukemia mice; assay type: functional
[14] = test system: Mus musculus; assay: Percent increase in life span at 400 mg/kg (389 umol) per day against Ip-implanted L1210 lymphoid leukemia mice; assay type: functional
[15] = test system: Mus musculus; assay: Median T/C calculated based on survivors at 400 mg/kg (389 umol) per day; assay type: functional
[16] = test system: Mus musculus; assay: Median T/C calculated based on survivors at 300 mg/kg (300 umol) per day against Ip-implanted L1210 lymphoid leukemia mice; assay type: functional
[17] = test system: Mus musculus; assay: Percent increase in life span at 300 mg/kg (300 umol) per day; assay type: functional

Structure (SMILES): CCCCCCCCCCCCCCCC(=O)OC(COP(=O)([O-])OP(=O)([O-])OC[C@H]1OC(n2ccc(N)nc2=O)[C@@H](O)[C@@H]1O)CSCCCCCCCCCCCCCC.[Na+].[Na+] (some centres undefined)
- ILS at 150 mg/kg [1]: 321%
- ILS [2]: >421% and 393%
- Median T/C [3]: 29.5
- Weight change [4]: 0.5 g mouse-1
- Survivors [5]: 3 and 1 and 2
- Median T/C [6]: >36.5 and 34.5
- solubility [7]: 1500 µM

Structure (SMILES): CCCCCCCCCCCCCCCCSCC(COP(=O)([O-])OP(=O)([O-])OC[C@H]1OC(n2ccc(N)nc2=O)[C@@H](O)[C@@H]1O)OC(=O)CCCCCCCCCCCCC.[Na+].[Na+] (some centres undefined)
- ILS at 300 mg/kg [8]: 386%
- Weight change [4]: -1.8 g mouse-1
- Survivors [5]: 2
- Median T/C [9]: 34
- solubility [7]: > 53000 µM

Structure (SMILES): CCCCCCCCCCCCCCSCC(COP(=O)([O-])OP(=O)([O-])OC[C@H]1OC(n2ccc(N)nc2=O)[C@@H](O)[C@@H]1O)OC(=O)CCCCCCCCCCC.[Na+].[Na+] (some centres undefined)
- ILS at 400 mg/kg [10]: 129%
- Median T/C [11]: 16
- Survivors [5]: 0
- solubility [7]: > 50000 µM

Structure (SMILES): CCCCCCCCCCCCCCSCC(COP(=O)([O-])OP(=O)([O-])OC[C@H]1OC(n2ccc(N)nc2=O)[C@@H](O)[C@@H]1O)OC(=O)CCCCCCCCCCCCC.[Na+].[Na+] (some centres undefined)
- ILS at 300 mg/kg [12]: 243%
- Median T/C [13]: 24
- Survivors [5]: 2
- solubility [7]: > 60000 µM

Structure (SMILES): CCCCCCCCCCCCCCCCCC(=O)OC(COP(=O)([O-])OP(=O)([O-])OC[C@H]1OC(n2ccc(N)nc2=O)[C@@H](O)[C@@H]1O)CSCCCCCCCCCCCCCCCC.[Na+].[Na+] (some centres undefined)
- ILS at 400 mg/kg [14]: > 521%
- Survivors [5]: 3
- solubility [7]: 200 µM
- Median T/C [15]: >43.5

Structure (SMILES): CCCCCCCCCCCCCCCCCCSCC(COP(=O)([O-])OP(=O)([O-])OC[C@H]1OC(n2ccc(N)nc2=O)[C@@H](O)[C@@H]1O)OC(=O)CCCCCCCCCCC.[Na+].[Na+] (some centres undefined)
- ILS at 150 mg/kg [1]: 371%
- ILS at 300 mg/kg [8]: 213%
- Median T/C [3]: 33
- Survivors [5]: 1 and 2
- Median T/C [9]: 25
- solubility [7]: > 54000 µM

Structure (SMILES): CCCCCCCCCCCCCCCCSCC(COP(=O)([O-])OP(=O)([O-])OC[C@H]1OC(n2ccc(N)nc2=O)[C@@H](O)[C@@H]1O)OC(=O)CCCCCCCCCCCCCCC.[Na+].[Na+] (some centres undefined)
- Median T/C [16]: 37.5
- Survivors [5]: 2
- solubility [7]: 200 µM
- ILS at 300 mg/kg [17]: > 436%
